Results published in US20240114940A1, “SACCHARIDE COMPOSITIONS HAVING SUCROSE-LIKE CHARACTERISTICS AND RELATED METHODS” (priority 2021, published 2024).

Tests used:
Assay type in all cases: physicochemical
[1] = Heating of saccharide solutions in an open system (observation, ion-exchange chromatography)
Method: The following steps were performed to observe the impact of heat and pH on xylo-oligosaccharides: • 1. Four saccharide solutions comprising xylo-oligosaccharides of primarily degree of polymerization (DP) 2-6 (XOS) were created by dissolving saccharides in water, some solutions including an acidity regulator. The four solutions were: • a. XOS in water, pH 7 • b. XOS in water, pH 7 • c. XOS in water and lemon juice, pH 2 • d. XOS in water and baking soda, pH 9 • 2. The four solutions were heated, and the resulting products analyzed. For the four solutions: • a. XOS in water at pH 7 was heated to 110° C. (FIG. 1A). The solution was yellow when dissolved in water, and sticky, dissolving around 60° C. The solution formed soft, sticky threads at 110° C. […] XOS in water at pH 7 was heated to 177° C. (FIG. 1B). The solution got very dark at 177° C. and smelled burnt. The solution began darkening in color around 120° C., with the darkest color formation beginning at 150° C. The solution formed a hard crack consistency at 177° C. When water was added, the hard crack consistency re-dissolved slowly. • c. XOS in water and lemon juice at pH 2 was heated to 177° C. (FIG. 1C). This solution behaved the same as solution (b). • d. […]
The following steps were performed to observe the impact of heat and pH on cello-oligosaccharide: • 1. […] The four solutions were heated, and the resulting products analyzed. […]

[2] = Non-enzymatic breakdown products in confectionery mixtures (milk, butter, saccharides); details: final confectionery mixture
[3] = Furfural and 5-hydroxymethylfurfural in headspace of heated solutions; details: solutions in water
Method: The solutions were rapidly heated to set temperatures and held at temperature for 5 min. After 5 min, the samples were rapidly cooled. […] (FIG. 18). The data is also plotted in FIG. 18 until 180° C.

degradation after heating ([1]; 177° C. at pH 7 and pH 4, open system): degrades
degradation after heating ([1]; 177° C. at pH 10, open system): does not degrade
Concentration of 3-methyl-3-(2-oxopropylamino)butan-2-one [2]: 0.00 ppb
Concentration of Acetic acid [2]: 0.01 ppb
Concentration of Benzaldehyde [2]: 0.13 ppb
Concentration of Furfural [2]: 0.01 ppb
Concentration of Isovaleraldehyde [2]: 0.17 ppb
temperature at which HMF concentration increased [3]: 180 °C
SMILES: OC[C@H]1O[C@@](CO)(O[C@H]2O[C@H](CO)[C@@H](O)[C@H](O)[C@H]2O)[C@@H](O)[C@@H]1O [Sucrose]
